Assay results taken from patent US9505736B2, “Histone deacetylase inhibitors and compositions and methods of use thereof” (CHDI Foundation, Inc., priority 2012, dated 2016).

Tests used:
[1] = test system: cellular histone deacetylase enzymatic activity in Jurkat E6-1 cells; assay: Inhibition of cellular HDAC activity in Jurkat E6-1 cells, Class IIa selective substrate Boc-Lys(Tfa)-AMC; type: cell-based; conditions: Homo sapiens
Method: Analysis of Inhibition of Cellular HDAC Activity with Class IIa Histone Deacetylase (HDAC) Inhibitors
After penetration in Jurkat E6-1 cells, the substrate is deacetylated to Boc-Lys-AMC. After cell lysis and cleavage by trypsin, the fluorophore AMC is released from the deacetylated substrate only. The fluoresence of the sample is directly related to the histone deacetylase activity in the sample.
Jurkat E6.1 Cell Culture and Plating.
Jurkat E6.1 cells are cultured according to standard cell culture protocols in Jurkat E6.1 Growth Media (RPMI without phenol red, 10% FBS, 10 mM HEPES, and 1 mM Sodium Pyruvate). Jurkat E6.1 cells are counted using a Coulter Counter and resuspended in Jurkat E6.1 growth media at a concentration of 75,000 cells/35 μl. 35 μl or 75,000 cells is seeded into Greiner microtitre assay plates. The plates are then incubated at 37° C. and 5% CO2 while other assay components are being prepared.
(§1) Serially Dilute HDAC Inhibitor Compounds.
(§2) Stocks of 70 μl aliquots of the 10 mM compound in DMSO are prepared and stored at −20° C. From one stock aliquot of each compound to be tested and the reference compound, a 16-point serial dilution is prepared according to Table 1 using a 125 μl 16-channel Matrix multi-channel pipette.
2 μl (200×) of each diluted solution and each control (full activity: 100% DMSO alone or full inhibition 1 mM) is stamped into V-bottom polypropylene 384-well compound plates using either the Bravo, Janus, or 12.5 μl 16-channel Matrix multi-channel pipette. Each well with the 200× compound solution is diluted 1:20 by the addition of 38 μl Jurkat assay buffer+DMSO (9.5% DMSO, RPMI without phenol red, 0.09% FBS, 9 mM Hepes, and 0.9 mM Sodium Pyruvate equilibrated to room temperature)
Prepare 5× (500 μM) Boc-Lys(Tfa)-AMC Substrate.
5× (500 μM) substrate is prepared just prior to the addition to the assay. The 5× substrate is prepared by diluting a 100 mM Boc-Lys(Tfa)-AMC in DMSO solution 1:200 by adding it drop-wise to Jurkat assay medium (RPMI without phenol red, 0.1% FBS, 10 mM Hepes, and 1 mM Sodium Pyruvate equilibrated to 37° C.) while vortexing at slow speed to prevent precipitation.
10 ml of 3× lysis buffer is prepared with 8.8 ml of 3× stock lysis buffer (50 mM Tris-HCl, pH 8.0, 137 mM NaCl, 2.7 mM KCl, 1 mM MgCl2, 1% Nonidet P40 Substitute equilibrated to room temperature) and 1.2 ml of 3 mg/ml Trypsin equilibrated to room temperature.
5 μl of each solution of 1:20 diluted compound from above is transferred to the Greiner microtitre assay plates with 75,000 cells/well using the Bravo. Cells are then incubated for 2 hours at 37° C. and 5% CO2. The assay is then started by adding 10 μl of 5× (500 μM) substrate to the assay plate using either the Bravo or 16-channel Matrix multi-channel pipette. The cells are then incubated for 3 hours at 37° C. and 5% CO2. Next, 25 μl of 3× lysis buffer is added to each well using either the 125 μl 16 channel pipette or the Bravo. The assay plate is then incubated overnight (15-16 hours) at 37° C. and 5% CO2. The following day, the plates are shaken on an orbital shaker for 1 minute at 900 rpm. Finally the top read fluorescence (Excitation: 355 nm, Emission: 460 nm) is measured using PerkinElmer EnVision.

[2] = molecular target: human catalytic domain HDAC4 protein (Homo sapiens, UniProt P56524, A743G/DEL730-739/DEL742-742); assay: Inhibition of HDAC4 catalytic domain enzymatic activity, Boc-Lys(Tfa)-AMC substrate, fluorescence; conditions: read-out: Biochemical HDAC-4 IC50
Method: Analysis of Inhibition of HDAC4 with Class IIa Histone Deacetylase (HDAC) Inhibitors
The substrate is deacetylated to Boc-Lys-AMC by HDAC4. Cleavage by trypsin results in the release of the fluorophore AMC from the deacetylated substrate. The fluorescence of the sample is directly related to the histone deacetylase activity in the sample.
as §1
as §2, with “60” for “70”, “pipette (Matrix Technologies Ltd).” for “pipette.”
2 μl (200×) of each diluted solution and each control (full activity: 100% DMSO alone or full inhibition 1 mM) is stamped into V-bottomed polypropylene 384-well compound plates using either the Bravo (384-well head from Agilent) or 12.5 μl 16-channel Matrix multi-channel pipette (Matrix Technologies Ltd).
Prepare HDAC4 Catalytic Domain Enzyme (0.86 μg/ml).
Prepare 5× (50 NM) Boc-Lys(Tfa)-AMC Substrate.
5× (50 μM) substrate is prepared just prior to the addition to the assay. A 1 mM substrate stock is made by diluting a 100 mM Boc-Lys(Tfa)-AMC in DMSO solution 1:100 by adding it drop-wise to assay buffer (equilibrated to room temperature) while vortexing at slow speed to prevent precipitation. The 5× substrate is prepared by diluting the 1 mM substrate solution 1:20 by adding it drop-wise to assay buffer (equilibrated to room temperature) while vortexing at slow speed to prevent precipitation.
Prepare 3× (30 NM) Developer/Stop Solution.
5 μl of each solution of 1:20 diluted compound from above is transferred to a clear bottomed, black, 384-well assay plate using the Bravo or the Janus (384-well MDT head from Perkin Elmer). Using a 16-channel Matrix multi-channel pipette, 35 μl of the working solution of HDAC4 catalytic domain enzyme (0.86 μg/ml in assay buffer) is transferred to the assay plate. The assay is then started by adding 10 μl of 5× (50 μM) substrate to the assay plates using either the Bravo, Janus or 16-channel Matrix multi-channel pipette. The assay plate is then shaken for two minutes on an orbital shaker at 900 rpm (rotations per minute). Next the plate is incubated for 15 minutes at 37° C. The reaction is stopped by adding 25 μl of 3× (30 μM) developer/stop solution to the assay plates using either the Bravo, Janus or a 16-channel Matrix multi-channel pipette. Assay plates are then shaken for 5 minutes on an orbital shaker at 1200 rpm. Next, the assay plates are incubated at 37° C. for 1 hour in a tissue culture incubator.

human catalytic domain HDAC4 protein, sequence (P56524 with tags, fused parts or gaps A743G/DEL730-739/DEL742-742): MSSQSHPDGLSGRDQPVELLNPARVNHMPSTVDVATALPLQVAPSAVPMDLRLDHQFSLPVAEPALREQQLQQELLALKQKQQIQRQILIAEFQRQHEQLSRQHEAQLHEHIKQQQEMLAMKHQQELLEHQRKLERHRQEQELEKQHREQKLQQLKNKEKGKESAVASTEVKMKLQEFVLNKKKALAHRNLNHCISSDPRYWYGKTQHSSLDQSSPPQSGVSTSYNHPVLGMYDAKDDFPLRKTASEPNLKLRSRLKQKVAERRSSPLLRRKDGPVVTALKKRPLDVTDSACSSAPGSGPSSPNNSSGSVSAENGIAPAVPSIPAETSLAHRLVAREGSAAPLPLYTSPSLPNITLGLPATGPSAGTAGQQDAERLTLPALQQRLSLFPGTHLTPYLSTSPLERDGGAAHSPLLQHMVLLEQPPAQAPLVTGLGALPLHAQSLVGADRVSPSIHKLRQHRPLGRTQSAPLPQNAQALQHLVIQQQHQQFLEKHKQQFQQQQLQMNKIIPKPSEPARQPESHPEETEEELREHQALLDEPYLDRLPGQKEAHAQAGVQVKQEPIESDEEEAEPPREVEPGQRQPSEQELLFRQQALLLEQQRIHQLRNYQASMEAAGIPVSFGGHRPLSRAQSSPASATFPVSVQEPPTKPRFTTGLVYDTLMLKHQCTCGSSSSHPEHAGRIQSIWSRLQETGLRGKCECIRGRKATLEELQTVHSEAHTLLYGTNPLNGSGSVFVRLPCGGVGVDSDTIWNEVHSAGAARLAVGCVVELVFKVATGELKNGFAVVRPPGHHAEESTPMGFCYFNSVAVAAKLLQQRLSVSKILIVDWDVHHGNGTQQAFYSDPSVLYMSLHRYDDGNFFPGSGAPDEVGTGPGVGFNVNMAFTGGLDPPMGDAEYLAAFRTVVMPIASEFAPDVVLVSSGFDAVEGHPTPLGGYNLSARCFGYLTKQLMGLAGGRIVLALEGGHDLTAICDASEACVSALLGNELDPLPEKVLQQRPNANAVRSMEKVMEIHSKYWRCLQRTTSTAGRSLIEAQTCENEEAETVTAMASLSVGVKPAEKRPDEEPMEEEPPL

SMILES	IC50 [1] [nM]	IC50 [2] [nM]
Cc1cnc(-c2ccc([C@H]3[C@H](c4ccccc4)[C@]3(F)C(=O)NO)cc2)nc1 [(1R,2R,3R)-1-Fluoro-N-hydroxy-2-(4-(5-methylpyrimidin-2-yl)phenyl)-3-phenylcyclopropanecarboxamide]	8900	–
O=C(NO)[C@@]1(F)[C@H](c2ccccc2)[C@H]1c1ccc(-c2cnc(C3CC3)o2)cc1 (racemic) [(1R*,2S*,3S*)-2-(4-(2-Cyclopropyloxazol-5-yl)phenyl)-1-fluoro-N-hydroxy-3-phenylcyclopropanecarboxamide]	28000	4650
Cc1cnc(-c2ccc([C@H]3[C@H](c4ccccc4)[C@]3(Cl)C(=O)NO)cc2)nc1 [(1R,2R,3R)-1-Chloro-N-hydroxy-2-(4-(5-methylpyrimidin-2-yl)phenyl)-3-phenylcyclopropanecarboxamide]	15300	–
O=C(NO)[C@@]1(F)[C@H](c2ccccc2)[C@H]1c1ccnc(C2CC2)c1 (racemic) [(1R*,2S*,3S*)-2-(2-Cyclopropylpyridin-4-yl)-1-fluoro-N-hydroxy-3-phenylcyclopropanecarboxamide]	> 50000	> 50000
O=C(NO)[C@@]1(F)[C@@H](c2ccccc2)[C@@H]1c1ccc(-c2ncc(OC(F)F)cn2)cc1 [(1R,2R,3R)-2-(4-(5-(Difluoromethoxy)pyrimidin-2-yl)phenyl)-1-fluoro-N-hydroxy-3-phenylcyclopropanecarboxamide]	> 50000	–
O=C(NO)[C@@]1(F)[C@H](c2ccccc2)[C@H]1c1cc(Cl)c2c(c1)OCCO2 (racemic) [(1R*,2S*,3S*)-2-(8-Chloro-2,3-dihydrobenzo[b][1,4]dioxin-6-yl)-1-fluoro-N-hydroxy-3-phenylcyclopropanecarboxamide]	40000	6470
O=C(NO)[C@@]1(F)[C@@H](c2ccccc2)[C@@H]1c1ccc(-c2nccc(C(F)(F)F)n2)cc1 [(1R,2R,3R)-1-Fluoro-N-hydroxy-2-phenyl-3-(4-(4-(trifluoromethyl)pyrimidin-2-yl)phenyl)cyclopropanecarboxamide]	> 50000	–

Now those with a lower IC50 [1], led by results:

IC50 [1] [nM]	IC50 [2] [nM]	SMILES
4500	–	O=C(NO)[C@@]1(F)[C@@H](c2ccccc2)[C@@H]1c1ccc(-c2ncc(F)cn2)cc1 [(1R,2R,3R)-1-Fluoro-2-(4-(5-fluoropyrimidin-2-yl)phenyl)-N-hydroxy-3-phenylcyclopropanecarboxamide]
870	60	O=C(NO)[C@]1(F)[C@H](c2ccccc2)[C@H]1c1ccc(Br)cc1 (racemic) [(1S*,2S*,3S*)-2-(4-Bromophenyl)-1-fluoro-N-hydroxy-3-phenylcyclopropanecarboxamide]
690	60	O=C(NO)[C@]1(F)[C@H](c2ccccc2)[C@H]1c1cnc(-c2ccc(F)cc2)s1 [(1S,2R,3S)-1-Fluoro-2-(2-(4-fluorophenyl)thiazol-5-yl)-N-hydroxy-3-phenylcyclopropanecarboxamide]
310	20	O=C(NO)[C@]1(F)[C@H](c2ccccc2)[C@H]1c1ccc(-c2cnc(C3CC3)o2)cc1 (racemic) [(1S*,2S*,3S*)-2-(4-(2-Cyclopropyloxazol-5-yl)phenyl)-1-fluoro-N-hydroxy-3-phenylcyclopropanecarboxamide]
260	–	O=C(NO)[C@]1(F)[C@H](c2ccccc2)[C@H]1c1ccc(-c2nccc(C(F)(F)F)n2)cc1 [(1S,2S,3S)-1-Fluoro-N-hydroxy-2-phenyl-3-(4-(4-(trifluoromethyl)pyrimidin-2-yl)phenyl)cyclopropanecarboxamide]
220	–	O=C(NO)[C@]1(F)[C@H](c2ccccc2)[C@H]1c1ccc(-c2ncc(OC(F)F)cn2)cc1 [(1S,2S,3S)-2-(4-(5-(Difluoromethoxy)pyrimidin-2-yl)phenyl)-1-fluoro-N-hydroxy-3-phenylcyclopropanecarboxamide]
120	–	Cc1cnc(-c2ccc([C@@H]3[C@@H](c4ccccc4)[C@@]3(F)C(=O)NO)cc2)nc1 [(1S,2S,3S)-1-Fluoro-N-hydroxy-2-(4-(5-methylpyrimidin-2-yl)phenyl)-3-phenylcyclopropanecarboxamide]
